Reference: paper PMC11202002, “P18: Novel Anticancer Peptide from Induced Tumor-Suppressing Cells Targeting Breast Cancer and Bone Metastasis” (Cancers, 2024)
Read-outs that look alike come from different tables or passages of the source.

B1: Arhgdia: Rho GDP dissociation inhibitor alpha; human recombinant ARHGDIA protein (MyBioSource) (protein, UniProt P52565 2-204, looked up)
Rho GDP-dissociation …: AEQEPTAEQLAQIAAENEEDEHSVNYKPPAQKSIQEIQELDKDDESLRKYKEALLGRVAVSADPNVPNVVVTGLTLVCSSAPGPLELDLTGDLESFKKQSFVLKEGVEYRIKISFRVNREIVSGMKYIQHTYRKGVKIDKTDYMVGSYGPRAEEYEFLTPVEEAPKGMLARGSYSIKSRFTDDDKTDHLSWEWNLTIKKDWKD

What was measured:
[1] = system: MDA-MB-231 cells; experiment: MTT-based cell viability assay; parameters: species or system human; conditions: for MTT-based relative viability: relative to cn = 1.00, peptide concentration not given, treated two days, OD 562 nm
Method: (§1) Using 96-well plates with approximately 2000 cells per well, an MTT-based metabolic activity assay was performed. The cells were treated with agents and incubated for two days. On the fourth day, they were stained with 0.5 mg/mL thiazolyl blue tetrazolium bromide (M5655, Sigma). The optical density, used to assess metabolic activity, was measured at 562 nm. For the EdU-based proliferation activity assay, the cells were seeded in 96-well plates at about 1000 cells per well. A fluorescence-based cell proliferation kit (Click-iT™, EdU Alexa Fluor™ 488 Imaging Kit; Thermo Fisher, Waltham, MA, USA) was used according to the manufacturer’s instructions.

[2] = system: human triple-negative breast cancer tissue; experiment: Ex vivo cancer tissue assay; type: cell-based; conditions: 5 µM Cisplatin or Taxol with 25 µg/mL of P18; 48 and 96 h; n = 6
Method: The usage of human triple-negative breast cancer tissue was approved by the Indiana University Institutional Review Board (1911155674), and the tissues were received from the Indiana University Simon Comprehensive Cancer Center Tissue Procurement Core. Freshly isolated breast cancer tissue (~10 mg) was manually fragmented with a scalpel into small pieces (0.5~0.8 mm in length), which were grown in DMEM with 10% FBS and antibiotics for a day. […] The culture medium, consisting of these agents, was applied for 4 days, and a change in the fragment size was determined.

[3] = system: MDA-MB-436 cells; experiment: MTT-based cell viability assay; parameters: species or system human; conditions: for MTT-based relative viability: relative to cn = 1.00, peptide concentration not given, treated two days, OD 562 nm
Method: as §1

[4] = system: MCF7 cells; experiment: MTT-based cell viability assay; parameters: species or system human
Method: as §1

[5] = system: PANC1 PDAC cells; experiment: MTT-based cell viability assay
Method: as §1

[6] = system: PANC198 PDAC cells; experiment: MTT-based cell viability assay; conditions: PANC198 (PAN198)
Method: as §1

[7] = system: TT2 osteosarcoma cell line; experiment: MTT-based cell viability assay; conditions: TT2 OS cells
Method: as §1

[8] = system: 4T1.2 mammary tumor cells; experiment: MTT-based cell viability assay; parameters: species or system mouse
Method: as §1

Row | Molecule | MTT-based relative viability [1] | MTT-based relative viability [3] | also measured
1 | N.N.[Cl][Pt][Cl] [Cisplatin, reference compound] |  |  | IC50 ([1]; drug alone, read-out: IC50, MTT-based viability): 1200 nM; IC50 ([1]; drug in combination with P18, read-out: IC50, MTT-based viability, with application of P18): 500 nM; size of cancer tissues, drug with concurrent P18 versus drug alone [2]: more pronounced reduction in the size
2 | CC(=O)O[C@H]1C(=O)[C@@]2(C)[C@H]([C@H](OC(=O)c3ccccc3)[C@]3(O)C[C@H](OC(=O)[C@H](O)[C@@H](NC(=O)c4ccccc4)c4ccccc4)C(C)=C1C3(C)C)[C@]1(OC(C)=O)CO[C@@H]1C[C@@H]2O [Taxol, reference compound] |  |  | IC50 ([1]; Homo sapiens, drug alone, read-out: IC50, MTT-based viability): 700 nM; IC50 ([1]; Homo sapiens, drug in combination with P18, read-out: IC50, MTT-based viability, with application of P18): 300 nM; size of cancer tissues, drug with concurrent P18 versus drug alone [2]: more pronounced reduction in the size
3 | DQVANSAFVER [P19, ACP candidate … from Hsp90aa1] | 1.09 | 0.96 | 
4 | EEAESTLQSFR [P14, ACP candidate … from Vim] | 0.88 | 0.84 | 
5 | FEDENFILK [P11, ACP candidate … from Ppia] | 0.96 | 0.95 | 
6 | FEELNADLFR [P21, ACP candidate … from Hspa8] | 0.89 | 0.92 | 
7 | IDTIEIITDR [P15, ACP candidate … from Hnrn] | 0.93 | 0.95 | 
8 | IEVIEIMTDR [P22, ACP candidate … from Hnrnpa1] | 0.86 | 0.88 | 
9 | LGDLYEEEMR [P17, ACP candidate … from Vim] | 1.10 | 0.99 | 
10 | NDLAVVDVR [P13, ACP candidate … from Ncl] | 0.98 | 0.95 | 
11 | QITLNDLPVGR [P20, ACP candidate … from Prdx4] | 0.87 | 0.86 | 
12 | TDYMVGSYGPR-NH2 [P18-NH2, C-terminal-amidated P18, …-NH2] |  |  | tumor-suppressor effect compared with the original P18 (MTT) [4]: did not improve the tumor-suppressor effect; tumor-suppressor effect compared with the original P18 (MTT) [1]: did not improve the tumor-suppressor effect; tumor-suppressor effect compared with the original P18 (MTT) [3]: did not improve the tumor-suppressor effect; tumor-suppressor effect compared with the original P18 (MTT) [5]: did not improve the tumor-suppressor effect; tumor-suppressor effect compared with the original P18 (MTT) [6]: did not improve the tumor-suppressor effect; tumor-suppressor effect compared with the original P18 (MTT) [7]: did not improve the tumor-suppressor effect; tumor-suppressor effect compared with the original P18 (MTT) [8]: did not improve the tumor-suppressor effect
13 | VNFTVDQIR [P12, ACP candidate … from Eef2] | 0.94 | 0.92 | 
14 | YEWDVAEAR [P16, ACP candidate … from Eef2] | 0.93 | 0.96 | 
15 | B1 |  |  | MTT-based cell viability ([1]; 5 μg/mL of recombinant ARHGDIA protein): significant reduction
